Results reported in ChEMBL document CHEMBL3046013, “Pyrithiobac reduces control of green foxtail (Setaria viridis) and bristly foxtail (Setaria verticillata) by propaquizafop” (2009).

Key:
Type in all cases: functional
Design in all cases: scale not given: the % may be the effect or the level left
[1] = test system: Setaria viridis; assay: Herbicidal activity against Setaria viridis (green foxtail) assessed as reduction of fresh weight at 125 g ai/ha after 45 days in presence of 68 g ai/ha of pyrithiobac relative to control
[2] = test system: Setaria viridis; assay: Herbicidal activity against Setaria viridis (green foxtail) assessed as reduction of fresh weight at 75 g ai/ha after 45 days relative to control in presence of ammonium sulphate
[3] = test system: Setaria viridis; assay: Herbicidal activity against Setaria viridis (green foxtail) assessed as reduction of fresh weight at 100 g ai/ha after 45 days relative to control
[4] = test system: Setaria viridis; assay: Herbicidal activity against Setaria viridis (green foxtail) assessed as reduction of fresh weight at 75 g ai/ha after 45 days in presence of 68 g ai/ha of pyrithiobac relative to control
[5] = test system: Setaria verticillata; assay: Herbicidal activity against Setaria verticillata assessed as reduction of fresh weight at 150 g ai/ha after 45 days relative to control
[6] = test system: Setaria verticillata; assay: Herbicidal activity against Setaria verticillata assessed as reduction of fresh weight at 100 g ai/ha after 45 days in presence of 68 g ai/ha of pyrithiobac relative to control
[7] = test system: Setaria viridis; assay: Herbicidal activity against Setaria viridis (green foxtail) assessed as reduction of fresh weight at 125 g ai/ha after 45 days relative to control
[8] = test system: Setaria verticillata; assay: Herbicidal activity against Setaria verticillata assessed as reduction of fresh weight at 100 g ai/ha after 45 days relative to control
[9] = test system: Setaria verticillata; assay: Herbicidal activity against Setaria verticillata assessed as reduction of fresh weight at 125 g ai/ha after 45 days in presence of 68 g ai/ha of pyrithiobac relative to control
[10] = test system: Setaria verticillata; assay: Herbicidal activity against Setaria verticillata assessed as reduction of fresh weight at 75 g ai/ha after 45 days in presence of 68 g ai/ha of pyrithiobac treated 1 day after compound challenge relative to control
[11] = test system: Setaria verticillata; assay: Herbicidal activity against Setaria verticillata assessed as reduction of fresh weight at 75 g ai/ha after 45 days in presence of 68 g ai/ha of pyrithiobac relative to control
[12] = test system: Setaria viridis; assay: Herbicidal activity against Setaria viridis (green foxtail) assessed as reduction of fresh weight at 75 g ai/ha after 45 days in presence of 68 g ai/ha of pyrithiobac treated 3 days after compound challenge relative to control
[13] = test system: Setaria viridis; assay: Herbicidal activity against Setaria viridis (green foxtail) assessed as reduction of fresh weight at 75 g ai/ha after 45 days in presence of 68 g ai/ha of pyrithiobac treated 3 days before compound challenge relative to control
[14] = test system: Setaria viridis; assay: Herbicidal activity against Setaria viridis (green foxtail) assessed as reduction of fresh weight at 150 g ai/ha after 45 days relative to control
[15] = test system: Setaria verticillata; assay: Herbicidal activity against Setaria verticillata assessed as reduction of fresh weight at 125 g ai/ha after 45 days relative to control
[16] = test system: Setaria viridis; assay: Herbicidal activity against Setaria viridis (green foxtail) assessed as reduction of fresh weight at 75 g ai/ha after 45 days in presence of 68 g ai/ha of pyrithiobac treated 1 day after compound challenge relative to control
[17] = test system: Setaria viridis; assay: Herbicidal activity against Setaria viridis (green foxtail) assessed as reduction of fresh weight at 75 g ai/ha after 45 days in presence of 68 g ai/ha of pyrithiobac treated 1 day before compound challenge relative to control
[18] = test system: Setaria verticillata; assay: Herbicidal activity against Setaria verticillata assessed as reduction of fresh weight at 75 g ai/ha after 45 days relative to control in presence of ammonium sulphate
[19] = test system: Setaria viridis; assay: Herbicidal activity against Setaria viridis (green foxtail) assessed as reduction of fresh weight at 75 g ai/ha after 45 days in presence of 68 g ai/ha of pyrithiobac and ammonium sulphate relative to control
[20] = test system: Setaria verticillata; assay: Herbicidal activity against Setaria verticillata assessed as reduction of fresh weight at 75 g ai/ha after 45 days relative to control
[21] = test system: Setaria verticillata; assay: Herbicidal activity against Setaria verticillata assessed as reduction of fresh weight at 75 g ai/ha after 45 days in presence of 68 g ai/ha of pyrithiobac treated 1 day before compound challenge relative to control
[22] = test system: Setaria viridis; assay: Herbicidal activity against Setaria viridis (green foxtail) assessed as reduction of fresh weight at 150 g ai/ha after 45 days in presence of 68 g ai/ha of pyrithiobac relative to control
[23] = test system: Setaria verticillata; assay: Herbicidal activity against Setaria verticillata assessed as reduction of fresh weight at 75 g ai/ha after 45 days in presence of 68 g ai/ha of pyrithiobac treated 3 days before compound challenge relative to control
[24] = test system: Setaria viridis; assay: Herbicidal activity against Setaria viridis (green foxtail) assessed as reduction of fresh weight at 100 g ai/ha after 45 days in presence of 68 g ai/ha of pyrithiobac relative to control
[25] = test system: Setaria verticillata; assay: Herbicidal activity against Setaria verticillata assessed as reduction of fresh weight at 150 g ai/ha after 45 days in presence of 68 g ai/ha of pyrithiobac relative to control
[26] = test system: Setaria verticillata; assay: Herbicidal activity against Setaria verticillata assessed as reduction of fresh weight at 75 g ai/ha after 45 days in presence of 68 g ai/ha of pyrithiobac treated 3 days after compound challenge relative to control
[27] = test system: Setaria viridis; assay: Herbicidal activity against Setaria viridis (green foxtail) assessed as reduction of fresh weight at 75 g ai/ha after 45 days relative to control

Question: CC(C)=NOCCOC(=O)[C@@H](C)Oc1ccc(Oc2cnc3cc(Cl)ccc3n2)cc1 [PROPAQUIZAFOP] was tested. Which Activity [1] did it give?
Answer: 66%

Question: What about the Activity [2] of the same molecule?
Answer: 89%

Question: What about the Activity [3] of the same molecule?
Answer: 91%

Question: And the Activity [4]?
Answer: 53%

Question: And the Activity [5]?
Answer: 100%

Question: And the Activity [6]?
Answer: 73%

Question: What about the Activity [7] of the same molecule?
Answer: 97%

Question: And the Activity [8]?
Answer: 95%

Question: What about the Activity [9] of the same molecule?
Answer: 78%

Question: And the Activity [10]?
Answer: 90%

Question: What about the Activity [11] of the same molecule?
Answer: 70%

Question: And the Activity [12]?
Answer: 85%

Question: What about the Activity [13] of the same molecule?
Answer: 66%

Question: And the Activity [14]?
Answer: 99%

Question: What about the Activity [15] of the same molecule?
Answer: 99%

Question: What about the Activity [16] of the same molecule?
Answer: 82%

Question: What about the Activity [17] of the same molecule?
Answer: 56%

Question: And the Activity [18]?
Answer: 94%

Question: And the Activity [19]?
Answer: 57%

Question: What about the Activity [20] of the same molecule?
Answer: 92%

Question: What about the Activity [21] of the same molecule?
Answer: 75%

Question: What about the Activity [22] of the same molecule?
Answer: 72%

Question: And the Activity [23]?
Answer: 81%

Question: And the Activity [24]?
Answer: 59%

Question: And the Activity [25]?
Answer: 83%

Question: What about the Activity [26] of the same molecule?
Answer: 93%

Question: What about the Activity [27] of the same molecule?
Answer: 86%
